Laboratory results published in US10681909B2, “Herbicidal triazoles” (FMC Corporation, priority 2014, dated 2020).

Key:
lambsquarters = experiment: Test C postemergence; type: in vivo, Chenopodium album
Outline: (§1)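 Surfactant-containing, non-phytotoxic solvent formulations of each compound were applied either preemergence to seeds in a loam soil–sand blend or postemergence to plants 2 to 18 cm tall (1- to 4-leaf stage). Postemergence plants were grown in peat moss–vermiculite medium.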

chickweed = experiment: Test C postemergence; type: in vivo, Stellaria media
Outline: as §1

barnyardgrass [1] = experiment: Test B flooded paddy test; type: in vivo, Echinochloa crus-galli; conditions: Echinochloa crus-galli, 360 h, 125 g ai/ha, applied to paddy water at 2-leaf stage, visual rating after 13 to 15 d, scale 0 (no effect) to 100 (complete control), read-out: Plant response rating, Barnyardgrass, Flood
Outline: (§2)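 Pots were flooded to 3 cm above the soil at treatment, and compounds were applied directly into the paddy water. That depth was held throughout. After 13 to 15 d in a greenhouse, plants were rated visually against untreated controls.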

wheat (winter wheat) = experiment: Test C postemergence; type: in vivo, Triticum aestivum
Outline: as §1

ryegrass, Italian = experiment: Test C postemergence; type: in vivo, Lolium multiflorum
Outline: as §1

rice = experiment: Test B flooded paddy test; type: in vivo, Oryza sativa; conditions: Oryza sativa, 360 h, 125 g ai/ha, applied to paddy water at 2-leaf stage, visual rating after 13 to 15 d, scale 0 (no effect) to 100 (complete control), read-out: Plant response rating, Rice, Flood
Outline: as §2

oat, wild = experiment: Test C postemergence; type: in vivo, Avena fatua
Outline: as §1

galium = experiment: Test C postemergence; type: in vivo, Galium aparine
Outline: as §1

nutsedge, yellow = experiment: Test C postemergence; type: in vivo, Cyperus esculentus
Outline: as §1

corn [2] = experiment: Test C postemergence; type: in vivo, Zea mays
Outline: as §1

sedge, umbrella = experiment: Test B flooded paddy test; type: in vivo, Cyperus difformis; conditions: Cyperus difformis, 360 h, 125 g ai/ha, applied to paddy water at 2-leaf stage, visual rating after 13 to 15 d, scale 0 (no effect) to 100 (complete control), read-out: Plant response rating, Sedge, Umbrella, Flood
Outline: as §2

pigweed [3] = experiment: Test C postemergence; type: in vivo, Amaranthus retroflexus
Outline: as §1

johnsongrass = experiment: Test C postemergence; type: in vivo, Sorghum halepense
Outline: as §1

pigweed [4] = experiment: Test A postemergence; type: in vivo, Amaranthus retroflexus; conditions: Amaranthus retroflexus, post-emergence, 240 h, 0 to 100 scale (0 no effect, 100 complete control), approx. 10 d, read-out: Plant response rating, Pigweed
Outline: (§3)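 Pre- and postemergence spray tests in a loam soil–sand mixture: seeded soil received a directed spray, while established seedlings 2–10 cm high at the one- to two-leaf stage were treated over the top. Compounds were carried in non-phytotoxic solvent with surfactant.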

barnyardgrass [5] = experiment: Test A postemergence; type: in vivo, Echinochloa crus-galli; conditions: Echinochloa crus-galli, post-emergence, 240 h, 0 to 100 scale (0 no effect, 100 complete control), approx. 10 d, read-out: Plant response rating, Barnyardgrass
Outline: as §3

ragweed = experiment: Test C postemergence; type: in vivo, Ambrosia elatior
Outline: as §1

ducksalad = experiment: Test B flooded paddy test; type: in vivo, Heteranthera limosa; conditions: Heteranthera limosa, 360 h, 125 g ai/ha, applied to paddy water at 2-leaf stage, visual rating after 13 to 15 d, scale 0 (no effect) to 100 (complete control), read-out: Plant response rating, Ducksalad, Flood
Outline: as §2

oilseed rape = experiment: Test C postemergence; type: in vivo, Brassica napus; conditions: Oilseed Rape
Outline: as §1

corn [6] = experiment: Test A postemergence; type: in vivo, Zea mays; conditions: Zea mays, post-emergence, 240 h, 0 to 100 scale (0 no effect, 100 complete control), approx. 10 d
Outline: as §3

foxtail, giant [7] = experiment: Test A postemergence; type: in vivo, Setaria faberii; conditions: Setaria faberi, post-emergence, 240 h, 0 to 100 scale (0 no effect, 100 complete control), approx. 10 d, read-out: Plant response rating, Foxtail, Giant
Outline: as §3

foxtail, giant [8] = experiment: Test C postemergence; type: in vivo, Setaria faberii
Outline: as §1

**Q.** Which results are given for `COc1nc(-c2ccc(F)cc2)nn1Cc1ccnc(C(F)(F)F)c1` [Compound 9, 4-[[3-(4-fluorophenyl)-5-methoxy-1H-1,2,4-triazol-1-yl]methyl]-2-(trifluoromethyl)pyridine]?
**A.** Plant response rating (scale of 0 to 100 where 0 is no effect and 100 is complete control) (lambsquarters; 16 g ai/ha): 65; Plant response rating (scale of 0 to 100 where 0 is no effect and 100 is complete control) (lambsquarters; 31 g ai/ha): 55; Plant response rating (scale of 0 to 100 where 0 is no effect and 100 is complete control) (lambsquarters; 62 g ai/ha): 70; Plant response rating (scale of 0 to 100 where 0 is no effect and 100 is complete control) (lambsquarters; 125 g ai/ha): 85; Plant response rating (scale of 0 to 100 where 0 is no effect and 100 is complete control) (chickweed; 16 g ai/ha): 70; Plant response rating (scale of 0 to 100 where 0 is no effect and 100 is complete control) (chickweed; 31 g ai/ha): 75; Plant response rating (scale of 0 to 100 where 0 is no effect and 100 is complete control) (chickweed; 62 g ai/ha): 75; Plant response rating (scale of 0 to 100 where 0 is no effect and 100 is complete control) (chickweed; 125 g ai/ha): 80; pest or weed control at 125 g/ha (barnyardgrass [1]): 0%; Plant response rating (scale of 0 to 100 where 0 is no effect and 100 is complete control) (wheat (winter wheat); 16 g ai/ha): 0; Plant response rating (scale of 0 to 100 where 0 is no effect and 100 is complete control) (wheat (winter wheat); 31 g ai/ha): 0; Plant response rating (scale of 0 to 100 where 0 is no effect and 100 is complete control) (wheat (winter wheat); 62 g ai/ha): 0; Plant response rating (scale of 0 to 100 where 0 is no effect and 100 is complete control) (wheat (winter wheat); 125 g ai/ha): 5; Plant response rating (scale of 0 to 100 where 0 is no effect and 100 is complete control) (ryegrass, Italian; 16 g ai/ha): 0; Plant response rating (scale of 0 to 100 where 0 is no effect and 100 is complete control) (ryegrass, Italian; 31 g ai/ha): 5; Plant response rating (scale of 0 to 100 where 0 is no effect and 100 is complete control) (ryegrass, Italian; 62 g ai/ha): 5; Plant response rating (scale of 0 to 100 where 0 is no effect and 100 is complete control) (ryegrass, Italian; 125 g ai/ha): 5; plant injury at 125 g/ha (rice): 0%; Plant response rating (scale of 0 to 100 where 0 is no effect and 100 is complete control) (oat, wild; 16 g ai/ha): 5; Plant response rating (scale of 0 to 100 where 0 is no effect and 100 is complete control) (oat, wild; 31 g ai/ha): 5; Plant response rating (scale of 0 to 100 where 0 is no effect and 100 is complete control) (oat, wild; 62 g ai/ha): 5; Plant response rating (scale of 0 to 100 where 0 is no effect and 100 is complete control) (oat, wild; 125 g ai/ha): 10; Plant response rating (scale of 0 to 100 where 0 is no effect and 100 is complete control) (galium; 16 g ai/ha): 50; Plant response rating (scale of 0 to 100 where 0 is no effect and 100 is complete control) (galium; 31 g ai/ha): 70; Plant response rating (scale of 0 to 100 where 0 is no effect and 100 is complete control) (galium; 62 g ai/ha): 80; Plant response rating (scale of 0 to 100 where 0 is no effect and 100 is complete control) (galium; 125 g ai/ha): 65; Plant response rating (scale of 0 to 100 where 0 is no effect and 100 is complete control) (nutsedge, yellow; 16 g ai/ha): 0; Plant response rating (scale of 0 to 100 where 0 is no effect and 100 is complete control) (nutsedge, yellow; 31 g ai/ha): 0; Plant response rating (scale of 0 to 100 where 0 is no effect and 100 is complete control) (nutsedge, yellow; 62 g ai/ha): 0; Plant response rating (scale of 0 to 100 where 0 is no effect and 100 is complete control) (nutsedge, yellow; 125 g ai/ha): 5; Plant response rating (scale of 0 to 100 where 0 is no effect and 100 is complete control) (corn [2]; 16 g ai/ha): 10; Plant response rating (scale of 0 to 100 where 0 is no effect and 100 is complete control) (corn [2]; 31 g ai/ha): 20; Plant response rating (scale of 0 to 100 where 0 is no effect and 100 is complete control) (corn [2]; 62 g ai/ha): 35; Plant response rating (scale of 0 to 100 where 0 is no effect and 100 is complete control) (corn [2]; 125 g ai/ha): 20; pest or weed control at 125 g/ha (sedge, umbrella): 80%; Plant response rating (scale of 0 to 100 where 0 is no effect and 100 is complete control) (pigweed [3]; 16 g ai/ha): 75; Plant response rating (scale of 0 to 100 where 0 is no effect and 100 is complete control) (pigweed [3]; 31 g ai/ha): 85; Plant response rating (scale of 0 to 100 where 0 is no effect and 100 is complete control) (pigweed [3]; 62 g ai/ha): 90; Plant response rating (scale of 0 to 100 where 0 is no effect and 100 is complete control) (pigweed [3]; 125 g ai/ha): 85; Plant response rating (scale of 0 to 100 where 0 is no effect and 100 is complete control) (johnsongrass; 16 g ai/ha): 0; Plant response rating (scale of 0 to 100 where 0 is no effect and 100 is complete control) (johnsongrass; 31 g ai/ha): 5; Plant response rating (scale of 0 to 100 where 0 is no effect and 100 is complete control) (johnsongrass; 62 g ai/ha): 5; Plant response rating (scale of 0 to 100 where 0 is no effect and 100 is complete control) (johnsongrass; 125 g ai/ha): 10; pest or weed control at 125 g/ha (pigweed [4]; 125 g ai/ha): 100%; pest or weed control at 500 g/ha (pigweed [4]; 500 g ai/ha): 100%; pest or weed control at 125 g/ha (barnyardgrass [5]; 125 g ai/ha): 70%; pest or weed control at 500 g/ha (barnyardgrass [5]; 500 g ai/ha): 90%; Plant response rating (scale of 0 to 100 where 0 is no effect and 100 is complete control) (ragweed; 16 g ai/ha): 15; Plant response rating (scale of 0 to 100 where 0 is no effect and 100 is complete control) (ragweed; 31 g ai/ha): 25; Plant response rating (scale of 0 to 100 where 0 is no effect and 100 is complete control) (ragweed; 62 g ai/ha): 25; Plant response rating (scale of 0 to 100 where 0 is no effect and 100 is complete control) (ragweed; 125 g ai/ha): 50; pest or weed control at 125 g/ha (ducksalad): 20%; Plant response rating (scale of 0 to 100 where 0 is no effect and 100 is complete control) (oilseed rape; 16 g ai/ha): 40; Plant response rating (scale of 0 to 100 where 0 is no effect and 100 is complete control) (oilseed rape; 31 g ai/ha): 55; Plant response rating (scale of 0 to 100 where 0 is no effect and 100 is complete control) (oilseed rape; 62 g ai/ha): 80; Plant response rating (scale of 0 to 100 where 0 is no effect and 100 is complete control) (oilseed rape; 125 g ai/ha): 70; Corn plant response rating (crop injury, 0 = no effect, 100 = complete kill) at 125 g/ha (corn [6]; 125 g ai/ha): 40%; Corn plant response rating (crop injury, 0 = no effect, 100 = complete kill) at 500 g/ha (corn [6]; 500 g ai/ha): 80%; pest or weed control at 125 g/ha (foxtail, giant [7]; 125 g ai/ha): 80%; pest or weed control at 500 g/ha (foxtail, giant [7]; 500 g ai/ha): 100%; Plant response rating (scale of 0 to 100 where 0 is no effect and 100 is complete control) (foxtail, giant [8]; 16 g ai/ha): 10; Plant response rating (scale of 0 to 100 where 0 is no effect and 100 is complete control) (foxtail, giant [8]; 31 g ai/ha): 15; Plant response rating (scale of 0 to 100 where 0 is no effect and 100 is complete control) (foxtail, giant [8]; 62 g ai/ha): 15; Plant response rating (scale of 0 to 100 where 0 is no effect and 100 is complete control) (foxtail, giant [8]; 125 g ai/ha): 20
